Measured values from patent US20220062147A1, “Skin Care Formulation for Treatment of Cellulite” (BOTTLED SCIENCE LIMITED, priority 2020, published 2022).

System: subjects with cellulite
Experiment: Superoxide dismutase administered to subjects with cellulite; subcutaneous fat measured after 90 days
Type: in vivo, human
Text: Similarly, there was a 23% reduction in subcutaneous fat compared with the placebo after 90 days at the femoral fold.

In the case of superoxide dismutase, the “reduction in subcutaneous fat compared with the placebo at the femoral fold” value (after 90 days, femoral fold, vs placebo) is reported as 23%, the “reduction in subcutaneous fat compared with the placebo at the gluteal fold” value (after 90 days, gluteal fold, vs placebo) is reported as 28% and the “subcutaneous fat at the femoral fold (FIG. 1, right-hand chart)” value (clinical trials, femoral fold, result in words) is reported as “significantly reduces”. For the same substance, the “subcutaneous fat at the gluteal fold (FIG. 1, left-hand chart)” value (clinical trials, gluteal fold, result in words) was “significantly reduces”.
